Laboratory results taken from ChEMBL document CHEMBL3407484, “Evolution in medicinal chemistry of ursolic acid derivatives as anticancer agents” (Eur J Med Chem, 2015).

Experiments:
Type in all cases: functional, cell-based
[1] = Cytotoxicity against human SKOV3 cells by MTT assay; conditions: SK-OV-3
[2] = test system: HeLa; experiment: Cytotoxicity against human HeLa cells by MTT assay
[3] = Cytotoxicity against human BGC823 cells by MTT assay; conditions: BGC-823
[4] = test system: HepG2; experiment: Cytotoxicity against human HepG2 cells by MTT assay

CC(=O)O[C@H]1CC[C@]2(C)[C@H]3CC=C4[C@@H]5[C@@H](C)[C@H](C)CC[C@]5(C(=O)NCCCN5CCOCC5)CC[C@@]4(C)[C@]3(C)CC[C@H]2C1(C)C
IC50 [1]: 7.4 µM
IC50 [2]: 2.71 µM
IC50 [3]: 4.46 µM

C[C@H]1[C@H](C)CC[C@]2(C(=O)O)CC[C@]3(C)C(=CC[C@@H]4[C@@]5(C)CC[C@H](OC(=O)CCC(=O)OCCOc6no[n+]([O-])c6S(=O)(=O)c6ccccc6)C(C)(C)[C@@H]5CC[C@]43C)[C@H]12
IC50 [4]: 3.2 µM
